In US10323051B2, “Methods for controlling depolymerization of polymer compositions” (RHODIA OPERATIONS, priority 2011, dated 2019):
Where two headings read alike, the source gives them in different places.

How the values were obtained:
[1] = Viscosity of THPS-(1%) polyacrylamide aqueous dispersion (OFITE viscometer, 300 rpm); type: physicochemical; settings: for viscosity @300 rpm (shear rate 500 s-1) after 60 minutes / viscosity @300 rpm after 60 minutes: 1% polyacrylamide; for effect on depolymerization: polyacrylamide with THPS under aerobic conditions at acidic pH, inhibitor added; for viscosity @300 rpm after 60 minutes: no depolymerization inhibitor
[2] = Molecular weight determination of polymer in the presence of THPS by GPC with light scattering detection; type: physicochemical; settings: for Mn / Mw / Polydispersity (Mw/Mn): 75 ppm THPS, 1% pol A, overnight at ambient temperature
[3] = guar or guar derivatives mixed with THPS at 10-1000 ppm
Experimental: The polymer(s) under investigation were weighed and dissolved in (deionized) DI water to attain a desired concentration (for example, 0.48% w/w guar, 1.0% w/w polyacrylamide). The solution was mixed thoroughly for 1 h to ensure that the polymer had fully or substantially dissolved and the polymer fully hydrated
The polymer solution as prepared above was placed in a 250 ml beaker. Viscosity was measured with an OFITE viscometer (model 900). Initial viscosity was recorded (300 rpm) (at 500 s^−1) and then an acetic acid/sodium acetate buffer added to achieve a total concentration in the polymer solution of 0.2% w/w. pH and viscosity were recorded and then the depolymerization inhibitor was added. THPS at the concentration being investigated was then added. Viscosity measurements were then made at various time intervals as recorded in the table of FIG. 1.

Oc1ccc(O)cc1 [hydroquinone]
viscosity @300 rpm (shear rate 500 s-1) after 60 minutes ([1]; 75 ppm THPS with 25 ppm hydroquinone, initial viscosity 23.8 cP): 14.6 cP | viscosity @300 rpm (shear rate 500 s-1) after 60 minutes ([1]; 75 ppm THPS with 50 ppm hydroquinone, initial viscosity 25.1 cP): 17.1 cP | effect on depolymerization [1]: the depolymerization is controlled or stopped

tetrakis(hydroxymethyl)phosphonium sulfate [THPS, reference compound]
viscosity @300 rpm after 60 minutes ([1]; 50 ppm THPS, initial viscosity 23.8 cP): 9.7 cP | viscosity @300 rpm after 60 minutes ([1]; 75 ppm THPS, initial viscosity 23.8 cP): 7.3 cP | viscosity @300 rpm after 60 minutes ([1]; 100 ppm THPS, initial viscosity 23.8 cP): 3.9 cP | viscosity @300 rpm after 60 minutes ([1]; 125 ppm THPS, initial viscosity 23.8 cP): 2 cP | effect on viscosity and molecular weight ([1]; polyacrylamide or polyacrylamide-co-acrylic acid solutions mixed with THPS at 50-1000 ppm): reduction in viscosity along with a corresponding molecular weight reduction | Mn ([2]; no inhibitor): 652,000 g/mol | Mw ([2]; no inhibitor): 812,000 g/mol | Polydispersity (Mw/Mn) ([2]; no inhibitor): 1.25 | Mw of THPS/polymer solution without an inhibitor relative to Mw with an inhibitor ([2]; after being left overnight): approximately half | effect on viscosity and molecular weight [3]: reduction in viscosity of the application fluid along with a corresponding molecular weight reduction

O=C1O[C@H]([C@@H](O)CO)C(O)=C1O [ascorbic acid]
viscosity @300 rpm (shear rate 500 s-1) after 60 minutes ([1]; 75 ppm THPS with 100 ppm ascorbic acid (rerun), initial viscosity 27.5 cP): 25.9 cP | viscosity @300 rpm (shear rate 500 s-1) after 60 minutes ([1]; 75 ppm THPS with 200 ppm ascorbic acid, initial viscosity 27.5 cP): 24.5 cP | effect on depolymerization [1]: the depolymerization is controlled or stopped | Mn ([2]; 1 ppm ascorbic acid): 1,460,000 g/mol | Mw ([2]; 1 ppm ascorbic acid): 1,770,000 g/mol | Polydispersity (Mw/Mn) ([2]; 1 ppm ascorbic acid): 1.22 | Mn ([2]; 10 ppm ascorbic acid): 1,480,000 g/mol | Mw ([2]; 10 ppm ascorbic acid): 1,840,000 g/mol | Polydispersity (Mw/Mn) ([2]; 10 ppm ascorbic acid): 1.25 | Mn ([2]; 50 ppm ascorbic acid): 1,590,000 g/mol | Mw ([2]; 50 ppm ascorbic acid): 1,890,000 g/mol | Polydispersity (Mw/Mn) ([2]; 50 ppm ascorbic acid): 1.19
